Measured values reported in patent publication US5808049A, “Stereospecific 5-fu esters and methods for preparing same” (Director-General of Agency of Industrial Science and …, priority 1994, dated 1998).

Assays:
[1] = Stereoselective hydrolysis of anticancer agent esters with rat whole blood; conditions: pH 7.5
Method: (§1) Each of the reaction mixtures was prepared by dissolving 1 mg of the ester in 10 μl of ethanol, and by mixing with it, 90 μl of a 0.1M phosphoric acid buffer (having a pH of 7.5), plus one of the following: 100 μl of a cell suspension, or 20 or 30 μl of whole blood, or 50 μl of tissue homogenate. […] The cells numbers in 100 μl of the cell suspension used in the reaction were as follows: rat liver cancer cells Anr4=7×10^6 ; rat pancreas cancer cells ARIP=8×10^6 ; rat sarcoma cells XC=5×10^6 ; human histiocytic leukemia cells U937=1×10^7 ; human pancreas cancer cells MIA PaCa-2=8×10^6 ; and human intestinum crassum cancer cells Colo 320=1×10^7. Fifty μl of the tissue homogenate corresponded to 20 mg of wet tissue.
(§2) Each of these reaction mixtures was stirred for 12 hours at 30° C. by a magnetic stirrer; then 1.5 μl of 2N HCl was added, to bring the pH to about 2.5, and extraction with 1 ml of ethyl acetate in the presence of a saturated sodium chloride was carried out twice. The ethyl acetate layers of each sample were combined, the volume was adjusted to precisely 2 ml, and it was divided into 1.7 ml and 0.3 ml. The former was concentrated under reduced pressure, and the contained produced carboxylic acid was isolated by thin-layer preparative chromatography. A solution of diazomethane in ether was added to it, to methylate it, and the absolute configuration and the optical purity of the methylated product were determined by high-performance liquid chromatography using a chiral column. The latter 0.3 ml was directly methylated, and then it was concentrated and adjusted to 0.3 ml again, and the methyl ester of the contained produced carboxylic acid was determined quantitatively by gas chromatography, from which the hydrolyzed rate was determined. The column used in the high-performance liquid chromatography was a Chiralcell OJ or OD column (trade name; 4.6×250 mm) manufactured by Daicel; the elution was carried out by using a 10% 2-propanol/hexane mixture; and the flow velocity was 1 or 0.75 ml/min. The column used in the gas chromatography was a capillary column of OV-1 (0.25 mm×25 m), and the analysis temperature was 120° to 180° C.

[2] = Stereoselective hydrolysis of anticancer agent esters with human whole blood; conditions: pH 7.5
Method: as §1, §2

[3] = Stereoselective hydrolysis of anticancer agent esters with rat sarcoma cells XC; conditions: rat, xc cells, pH 7.5
Method: as §1, §2

rat sarcoma cells XC = assay: as above; conditions: XC; 12 hours at 30° C., pH 7.5
Method: as §1, §2

[4] = Stereoselective hydrolysis of anticancer agent esters with rat liver cancer cells Anr4; conditions: rat, anr4 cells, pH 7.5
Method: as §1, §2

[5] = tested on: rat liver cancer cells Anr4; assay: as above; conditions: Anr4; 12 hours at 30° C., pH 7.5
Method: as §1, §2

[6] = Stereoselective hydrolysis of anticancer agent esters with normal rat liver homogenate; conditions: 12 hours at 30° C., pH 7.5
[7] = Stereoselective hydrolysis of anticancer agent esters with normal rat muscle homogenate; conditions: 12 hours at 30° C., pH 7.5
[8] = Stereoselective hydrolysis of anticancer agent esters with rat pancreas cancer cells ARIP; conditions: rat, arip cells, pH 7.5
Method: as §1, §2

[9] = tested on: rat pancreas cancer cells ARIP; assay: as above; conditions: ARIP; 12 hours at 30° C., pH 7.5
Method: as §1, §2

[10] = Stereoselective hydrolysis of anticancer agent esters with normal rat pancreas homogenate; conditions: 12 hours at 30° C., pH 7.5
Method: as §1, §2

[11] = Stereoselective hydrolysis of anticancer agent esters with human histiocytic leukemia cells U937; conditions: human, u937 cells, pH 7.5
Method: as §1, §2

[12] = tested on: human histiocytic leukemia cells U937; assay: as above; conditions: U937; 12 hours at 30° C., pH 7.5
Method: as §1, §2

[13] = Stereoselective hydrolysis of anticancer agent esters with human pancreas cancer cells MIA PaCa-2; conditions: human, mia paca-2 cells, pH 7.5
Method: as §1, §2

[14] = tested on: human pancreas cancer cells MIA PaCa-2; assay: as above; conditions: MIA PaCa-2; 12 hours at 30° C., pH 7.5
Method: as §1, §2

[15] = Stereoselective hydrolysis of anticancer agent esters with human intestinum crassum cancer cells Colo 320; conditions: human, colo 320 cells, pH 7.5
Method: as §1, §2

[16] = tested on: human intestinum crassum cancer cells Colo 320; assay: as above; conditions: Colo320; 12 hours at 30° C., pH 7.5
Method: as §1, §2

enantiomer excess of the carboxylic acid produced by the hydrolysis ([1]; rat whole blood, 12 hours at 30° C.): 41.8 % e.e.
metabolised at 12 h ([1]; rat, whole blood): 16.3%
enantiomer excess of the carboxylic acid produced by the hydrolysis ([2]; human whole blood, 12 hours at 30° C.): 66.9 % e.e.
metabolised at 12 h ([2]; human, whole blood): 36.1%
metabolised at 12 h [3]: 3.4%
enantiomer excess of the carboxylic acid produced by the hydrolysis (rat sarcoma cells XC): > 99 % e.e.
metabolised at 12 h [4]: 7.8%
enantiomer excess of the carboxylic acid produced by the hydrolysis [5]: 98.4 % e.e.
enantiomer excess of the carboxylic acid produced by the hydrolysis [6]: > 99 % e.e.
enantiomer excess of the carboxylic acid produced by the hydrolysis [7]: 87.8 % e.e.
metabolised at 12 h [8]: 1.9%
enantiomer excess of the carboxylic acid produced by the hydrolysis [9]: > 99 % e.e.
enantiomer excess of the carboxylic acid produced by the hydrolysis [10]: > 99 % e.e.
metabolised at 12 h [11]: 12.6%
enantiomer excess of the carboxylic acid produced by the hydrolysis [12]: 57.8 % e.e.
metabolised at 12 h [13]: 20.6%
enantiomer excess of the carboxylic acid produced by the hydrolysis [14]: 19.0 % e.e.
metabolised at 12 h [15]: 13.8%
enantiomer excess of the carboxylic acid produced by the hydrolysis [16]: 64.6 % e.e.
Compound: O=C(OC[C@H]1O[C@@H](n2cc(F)c(=O)[nH]c2=O)[C@H](O)[C@@H]1O)C(Cc1ccccc1)NC(=O)C(F)(F)F (stereo partly drawn) [IIc, 5'-(RS)-(2-trifluoroacetamido-3-phenylpropionyl)-5-fluorouridine]
